Experimental findings from EP2664616A1, “Hydantoin and thiohydantoin derivatives as antiviral drugs” (priority 2012, dated 2013) are described below.

A word on the EC50: it is the concentration needed to bring the measured effect to its halfway point.

The assay has as its system HCV replicon Luc Neo ET. Put plainly: HCV replication inhibition assay (replicon assay, luciferase reporter). The settings on record: Hepatitis C virus; Huh-7 cell lines containing HCV replicon Luc Neo ET; 72 hours with compound; 1 % DMSO; firefly luciferase reporter; concentration that produces 50 % of replication inhibition; read-out: EC50 Replicon LucneoET. The format is cell-based. The procedure:
The compounds according to the present invention were tested for their ability to inhibit HCV replication as follows:
Huh-7 cell lines containing HCV replicon Luc Neo ET (Reblikon) were maintained in DMEM supplemented with 10% SVF, 2 mM glutamine, and 1 X NEAA, 100 U / ml penicillin, and 100 µg / ml streptomycine. Cells were maintained in medium supplemented with 0.5 mg/ml G418, at 37°C and 5% CO2 in a humidified atmosphere. Cells were dissociated at sub confluence with trypsin EDTA 1X.
Replicon Luc Neo ET is bicistronic expression constructs (Lohmann et al, 1999, Science 285, 110-113). In brief, the structural genes of the HCV genome were replaced by heterologous sequences; the gene encoding the neomycin phosphotransferase (NPT) and the internal ribosome entry site (IRES) of the encephalomyocarditis virus (EMCV). The bicistronic construct is therefore composed of the following elements: HCV-IRES nucleotides 1-389 for Luc Neo ET, the NPT gene, the EMCV-IRES directing translation of downstream HCV sequences from NS2 or NS3 up to the authentic 3' end of the genome. HCV Polyprotein of Luc Neo ET replicon harbours the cell culture adaptive mutations E1202G, T1280I, K1846T. G418-resistance is only possible with cells containing high amounts of replicon.
Cells were dissociated the day before addition of compounds and seeded in 96 well-plates at a final concentration of 27 777.77 cells.ml^-1.cm^-2 in 90µl final volume of culture medium per well and were maintained at 37°C and 5% CO2 in a humidified atmosphere for 24 hours. 10 µl of compounds to be tested were added 24 hours after seeding. Final concentration of DMSO was 1 %. Cells were incubated in the presence of compounds for 72 hours after which expression of firefly luciferase reporter gene was quantified. Briefly, culture medium was removed and cells were lysed by addition of 100 µl of lysis buffer containing 125 mM Tris Phosphate ph 7.8, 10 mM EDTA, 5 mM DTT, 50 % glycerol and 5 % Triton. Plates were vortexed 10 min at 1300 rpm. 100µl of luciferin solution 1X were added to each well. Luciferin solution contained 40 mM Tris Phosphate ph 7.8, 0.2 mM EDTA, 67 mM DTT, 2.14 mM MgCl2, 5.4 mM MgSO4, 4.7 x 10^-4 M luciferin, 5.3 x 10^-4 M ATP and 2.7 x 10^-4 M Acetyl co enzyme A. Luminescence was immediately measured with Berthold Microlumat Plus LB 96V luminometer with an integration of 1 sec. Inhibition was calculated using the formula: % inhibition = 1-[(RLUsample-RLUbackground)/(RLUsignal-RLUbackground)].
The Table 1 below illustrates data on the biological activity of compounds of the present invention. Results are expressed as EC50 which is the concentration that produces 50 % of replication inhibition. Table 1. HCV replication inhibition assay
In general terms: A replicon is a self-replicating genome or part of one, used to study replication in cells.
Turning to `COc1ccc(NC(=O)CC2C(=O)N(c3ccc(F)cc3)C(=S)N2CCc2cccs2)cc1` (stereo not drawn) [Example 46, 2-[1-(4-fluorophenyl)-5-oxo-2-sulfanylidene-3-[2-(thiophen-2-yl)ethyl]imidazolidin-4-yl]-N-(4-methoxyphenyl)acetamide], the EC50 is less than 500 nM. The same measure for `COc1ccc(NC(=O)CC2C(=O)N(c3ccc(F)cc3)C(=S)N2CCc2ccc(N(C)C)cc2)cc1` (stereo not drawn) [Example 47, 2-(3-{2-[4-(dimethylamino)phenyl]ethyl}-1-(4-fluorophenyl)-5-oxo-2-sulfanylideneimidazolidin-4-yl)-N-(4-methoxyphenyl)acetamide]: less than 500 nM; for `CN(C)c1ccc(NC(=O)CC2C(=O)N(c3ccc(F)cc3)C(=S)N2CCc2cccs2)cc1` (stereo not drawn) [Example 48, N-[4-(dimethylamino)phenyl]-2-[1-(4-fluorophenyl)-5-oxo-2-sulfanylidene-3-[2-(thiophen-2-yl)ethyl]imidazolidin-4-yl]acetamide]: less than 500 nM; for `CN(C)c1ccc(CCN2C(=O)N(c3ccc(F)cc3)C(=O)C2CC(=O)Nc2ccc(N(C)C)cc2)cc1` (stereo not drawn) [Example 49, N-[4-(dimethylamino)phenyl]-2-(3-{2-[4-(dimethylamino)phenyl]ethyl}-1-(4-fluorophenyl)-2,5-dioxoimidazolidin-4-yl)acetamide]: less than 500 nM. With `COc1ccc(CCN2C(=S)N(c3ccccc3)C(=O)C2CC(=O)Nc2ccc(N(C)C)cc2)cc1` (stereo not drawn) [Example 51, N-[4-(dimethylamino)phenyl]-2-{3-[2-(4-methoxyphenyl)ethyl]-5-oxo-1-phenyl-2-sulfanylideneimidazolidin-4-yl}acetamide] the figure was less than 500 nM. With `COc1ccc(NC(=O)CC2C(=O)N(c3ccc(F)cc3)C(=S)N2CCc2ccc(N3CCOCC3)cc2)cc1` (stereo not drawn) [Example 52, 2-[1-(4-fluorophenyl)-3-{2-[4-(morpholin-4-yl)phenyl]ethyl}-5-oxo-2-sulfanylideneimidazolidin-4-yl]-N-(4-methoxyphenyl)acetamide] the figure was less than 500 nM; with `COCCOc1ccc(NC(=O)CC2C(=O)N(c3ccc(F)cc3)C(=S)N2CCc2ccc(OC)cc2)cc1` (stereo not drawn) [Example 53, 2-[1-(4-fluorophenyl)-3-[2-(4-methoxyphenyl)ethyl]-5-oxo-2-sulfanylideneimidazolidin-4-yl]-N-[4-(2-methoxyethoxy)phenyl]acetamide], less than 500 nM; with `COc1ccc(CCN2C(=S)N(c3ccc(F)cc3)C(=O)C2CC(=O)Nc2ccc(OC(C)C)cc2)cc1` (stereo not drawn) [Example 54, 2-[1-(4-fluorophenyl)-3-[2-(4-methoxyphenyl)ethyl]-5-oxo-2-sulfanylideneimidazolidin-4-yl]-N-[4-(propan-2-yloxy)phenyl]acetamide], less than 500 nM.

`COc1ccc(CCN2C(=S)N(c3ccncc3)C(=O)C2CC(=O)Nc2ccc(OC)cc2)cc1` (stereo not drawn) [Example 55, N-(4-methoxyphenyl)-2-{3-[2-(4-methoxyphenyl)ethyl]-5-oxo-1-(pyridin-4-yl)-2-sulfanylideneimidazolidin-4-yl}acetamide]: the EC50 was less than 5000 nM. The same measure for `O=C(CC1C(=O)N(c2ccccc2)C(=S)N1CCc1ccc(Cl)cc1)Nc1ccccn1` (stereo not drawn) [Example 57, 2-{3-[2-(4-chlorophenyl)ethyl]-5-oxo-1-phenyl-2-sulfanylideneimidazolidin-4-yl}-N-(pyridin-2-yl)acetamide]: less than 500 nM; for `COc1ccc(NC(=O)CC2C(=O)N(c3ccccc3)C(=S)N2CCc2ccc(Cl)cc2)cn1` (stereo not drawn) [Example 59, 2-{3-[2-(4-chlorophenyl)ethyl]-5-oxo-1-phenyl-2-sulfanylideneimidazolidin-4-yl}-N-(6-methoxypyridin-3-yl)acetamide]: less than 5000 nM. With `COc1ccc(NC(=O)CC2C(=O)N(c3ccccc3)C(=S)N2CCc2ccc(Cl)cc2)nc1` (stereo not drawn) [Example 61, 2-{3-[2-(4-chlorophenyl)ethyl]-5-oxo-1-phenyl-2-sulfanylideneimidazolidin-4-yl}-N-(5-methoxypyridin-2-yl)acetamide] the figure was less than 500 nM; with `O=C(CC1C(=O)N(c2ccccc2)C(=S)N1CCc1ccc(Cl)cc1)Nc1ccon1` (stereo not drawn) [Example 64, 2-{3-[2-(4-chlorophenyl)ethyl]-5-oxo-1-phenyl-2-sulfanylideneimidazolidin-4-yl}-N-(1,2-oxazol-3-yl)acetamide], less than 5000 nM.

As for `COc1ccc(NC(=O)CC2C(=O)N(c3ccc(F)cc3)C(=S)N2CCc2ccc(Cl)cc2)nc1` (stereo not drawn) [Example 66, 2-{3-[2-(4-chlorophenyl)ethyl]-1-(4-fluorophenyl)-5-oxo-2-sulfanylideneimidazolidin-4-yl}-N-(5-methoxypyridin-2-yl)acetamide], the EC50 was less than 500 nM. The same measure for `COc1ccc(CCN2C(=S)N(c3ccccc3)C(=O)C2CC(=O)Nc2ccc(C)nn2)cc1` (stereo not drawn) [Example 68, 2-{3-[2-(4-methoxyphenyl)ethyl]-5-oxo-1-phenyl-2-sulfanylideneimidazolidin-4-yl}-N-(6-methylpyridazin-3-yl)acetamide]: less than 30000 nM. The same measure for `COc1ccc(CCN2C(=S)N(c3ccccc3)C(=O)C2CC(=O)Nc2ccc(OC)nn2)cc1` (stereo not drawn) [Example 69, 2-{3-[2-(4-methoxyphenyl)ethyl]-5-oxo-1-phenyl-2-sulfanylideneimidazolidin-4-yl}-N-(6-methoxypyridazin-3-yl)acetamide]: less than 5000 nM; for `COc1ccc(CCN2C(=O)N(c3ccc(F)cc3)C(=O)C2CC(=O)Nc2ccc(OC)nn2)cc1` (stereo not drawn) [Example 71, 2-[1-(4-fluorophenyl)-3-[2-(4-methoxyphenyl)ethyl]-2,5-dioxoimidazolidin-4-yl]-N-(6-methoxypyridazin-3-yl)acetamide]: less than 30000 nM. With `COc1ccc(CCN2C(=O)N(c3ccc(F)cc3)C(=O)C2CC(=O)Nc2ccc(OC)cn2)cc1` (stereo not drawn) [Example 72, 2-[1-(4-fluorophenyl)-3-[2-(4-methoxyphenyl)ethyl]-2,5-dioxoimidazolidin-4-yl]-N-(5-methoxypyridin-2-yl)acetamide] the figure was less than 5000 nM. On to `COc1ccc(CCN2C(=O)N(c3ccc(F)cc3)C(=O)C2CC(=O)Nc2ccc(N(C)C)cn2)cc1` (stereo not drawn) [Example 73, N-[5-(dimethylamino)pyridin-2-yl]-2-[1-(4-fluorophenyl)-3-[2-(4-methoxyphenyl)ethyl]-2,5-dioxoimidazolidin-4-yl]acetamide], for which the EC50 was less than 500 nM. The same measure for `COc1ccc(CCN2C(=O)N(c3ccc(F)cc3)C(=O)C2CC(=O)Nc2ccc(C)nn2)cc1` (stereo not drawn) [Example 74, 2-[1-(4-fluorophenyl)-3-[2-(4-methoxyphenyl)ethyl]-2,5-dioxoimidazolidin-4-yl]-N-(6-methylpyridazin-3-yl)acetamide]: less than 30000 nM; for `COc1ncc(NC(=O)CC2C(=O)N(c3ccc(F)cc3)C(=O)N2CCc2ccc(N(C)C)cc2)cn1` (stereo not drawn) [Example 78, 2-(3-{2-[4-(dimethylamino)phenyl]ethyl}-1-(4-fluorophenyl)-2,5-dioxoimidazolidin-4-yl)-N-(2-methoxypyrimidin-5-yl)acetamide]: less than 30000 nM.

Turning to `COc1ncc(NC(=O)CC2C(=O)N(c3ccc(F)cc3)C(=S)N2CCc2ccc(N(C)C)cc2)cn1` (stereo not drawn) [Example 79, 2-(3-{2-[4-(dimethylamino)phenyl]ethyl}-1-(4-fluorophenyl)-5-oxo-2-sulfanylideneimidazolidin-4-yl)-N-(2-methoxypyrimidin-5-yl)acetamide], the EC50 was less than 5000 nM.

Regarding `COc1ccc(CCN2C(=S)N(c3ccc(F)cc3)C(=O)C2CC(=O)Nc2cnc(OC)nc2)cc1` (stereo not drawn) [Example 82, 2-[1-(4-fluorophenyl)-3-[2-(4-methoxyphenyl)ethyl]-5-oxo-2-sulfanylideneimidazolidin-4-yl]-N-(2-methoxypyrimidin-5-yl)acetamide], the half-maximal effective concentration (EC50) was less than 5000 nM.

Regarding `COc1ccc(CCN2C(=S)N(c3ccc(F)cc3)C(=O)C2CC(=O)Nc2ccc(OC)cn2)cc1` (stereo not drawn) [Example 83, 2-[1-(4-fluorophenyl)-3-[2-(4-methoxyphenyl)ethyl]-5-oxo-2-sulfanylideneimidazolidin-4-yl]-N-(5-methoxypyridin-2-yl)acetamide], the concentration for a half-maximal effect (EC50) is less than 500 nM.
